In US6337327B1, “Pharmaceutical compositions comprising an aldose reductase inhibitor and an ace inhibitor” (Zeneca Limited, priority 1997, dated 2002):

System: rats rendered diabetic by streptozotocin (sciatic nerve branch to tibialis anterior muscle)
Test: Motor nerve conduction velocity in streptozotocin-diabetic rats
Assay type: in vivo, Male Sprague-Dawley rats
Settings: lisinopril 0.3 mg/kg/day; for Nerve conduction velocity (mean±SEM): diabetic rats, 6 weeks untreated diabetes then 2 weeks treatment in the drinking water, ZD5522 0.25 mg/kg/day, or both, nondiabetic control 64.4±0.5, untreated diabetic 50.9±0.5; for increase in conduction velocity: single-agent treatment for 2 weeks vs untreated diabetic rats, ZD5522 0.25 mg/kg/day
Description: Male Sprague-Dawley rats, 19 weeks old at the start of the study, were divided into non-diabetic animals (normal control group) and animals rendered diabetic by intraperitoneal administration of streptozotocin, (40-45 mg/kg, freshly dissolved in sterile saline). Diabetes was verified 24 hours later by estimating hyperglycemia and glucosuria (Visidex II and Diastix; Ames, Slough, UK). Diabetic rats were tested weekly and weighed daily. […] Samples were taken from the tail vein or carotid artery after final experiments for plasma glucose determination (GOD-Perid method; Boehringer Mannheim, Mannheim, Germany). After 6 weeks of untreated diabetes, groups of rats were treated for a further 2 weeks with lisinopril (0.3 mg/kg/day) or the aldose reductase inhibitor, ZD5522 (0.25 mg/kg/day) or a combination of the two drugs, dissolved in the drinking water.
At the end of the treatment period, rats were anesthetized with thiobutabarbitone by intraperitoneal injection (50-100 mg/kg). The trachea was cannulated for artificial ventilation and a cartoid cannula was used to monitor mean systemic blood pressure. Motor nerve conduction velocity was measured (as previously described by Cameron et al, Diabetologia, 1993, Vol. 36, pages 299-304) between sciatic notch and knee in the nerve branch to tibialis anterior muscle, which is representative of the whole sciatic nerve in terms of susceptibility to diabetes and treatment effects.

SMILES | Nerve conduction velocity (mean±SEM) [m/s] | increase in conduction velocity [%]
Cc1ccccc1CC(=O)Nc1cc(C)c(S(=O)(=O)C[N+](=O)[O-])c(C)c1 [ZD5522, 3′,5′-dimethyl-4′-nitromethylsulfonyl-2-(2-tolyl)acetanilide] | 53.7±0.3 | ~20
NCCCC[C@H](N[C@@H](CCc1ccccc1)C(=O)O)C(=O)N1CCC[C@H]1C(=O)O [lisinopril] | 53.9±0.6 | ~20
